Source: ChEMBL document CHEMBL1135837, “Approach to dual-acting platelet activating factor (PAF) receptor antagonist/thromboxane synthase inhibitor (TxSI) based on the link of PAF antagonists and TxSIs” (Bioorg Med Chem Lett, 2002)

How the values were obtained:
Type in all cases: functional
[1] = biological target: T1, Thromboxane-A synthase (Homo sapiens, UniProt P24557); assay: In vitro inhibition of TXB2 production by incubating prostaglandin H2 with human platelet microsomes.
T1 sequence (P24557 whole entry): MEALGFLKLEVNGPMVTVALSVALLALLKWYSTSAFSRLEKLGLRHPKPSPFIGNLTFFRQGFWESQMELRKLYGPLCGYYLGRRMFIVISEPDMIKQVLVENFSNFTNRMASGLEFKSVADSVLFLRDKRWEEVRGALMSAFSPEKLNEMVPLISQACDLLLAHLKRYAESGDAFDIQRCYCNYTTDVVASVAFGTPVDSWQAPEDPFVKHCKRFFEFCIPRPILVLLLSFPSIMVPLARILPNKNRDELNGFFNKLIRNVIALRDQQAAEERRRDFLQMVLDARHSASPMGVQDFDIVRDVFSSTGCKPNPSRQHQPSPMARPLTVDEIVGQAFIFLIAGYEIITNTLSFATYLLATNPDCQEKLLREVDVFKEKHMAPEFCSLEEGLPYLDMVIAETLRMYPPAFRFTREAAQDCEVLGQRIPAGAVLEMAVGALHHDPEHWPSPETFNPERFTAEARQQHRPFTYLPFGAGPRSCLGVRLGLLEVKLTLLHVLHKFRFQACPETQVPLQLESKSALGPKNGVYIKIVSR

[2] = species: Oryctolagus cuniculus; assay: In vitro inhibition of platelet activating factor induced platelet aggregation in rabbit platelet rich plasma.
[3] = species: Mus musculus; assay: Ex vivo antagonistic activity towards platelet activating factor was assessed in mouse by using PAF-induced death assay

SMILES	IC50 [1] [µM]	IC50 [2] [µM]	ED50 [3] [mg/kg]
Cc1nnc2n1-c1sc3c(c1C(c1ccccc1Cl)=N[C@H]2C)CCN(C(=O)C1CC1)C3 (racemic)	–	0.36	–
CCOC(=O)CCCCO/N=C(\c1ccc(CN2CCN(C(=O)C3CSC(c4cccnc4)N3)CC2)cc1)c1cccnc1 (stereo not given)	0.072	0.28	–
CCOC(=O)C1=C(c2ccc(-n3c(C)nc4cnccc43)cc2)NC(C)=C(C(=O)Nc2ccccn2)C1c1ccccc1Cl (stereo not given)	–	0.029	–
CCOC(=O)CCCCO/N=C(\c1ccc(C(=O)N2CCc3c(sc4c3C(c3ccccc3Cl)=NC(C)c3nnc(C)n3-4)C2)cc1)c1cccnc1 (stereo not given)	0.072	0.1	0.5
CCOC(=O)CCCCO/N=C(/c1cccnc1)c1cccc(C(=O)N2CCN(C(=O)C3CSC(c4cccnc4)N3)CC2)c1 (stereo not given)	0.052	0.48	–
CCOC(=O)CCCCO/N=C(\c1cccnc1)c1cccc(CN2CCN(C(=O)C3CSC(c4cccnc4)N3)CC2)c1 (stereo not given)	0.088	0.2	–
CCOC(=O)CCCCO/N=C(/c1cccnc1)c1ccccc1C(=O)N1CCN(C(=O)C2CSC(c3cccnc3)N2)CC1 (stereo not given)	> 1	0.56	–
CCOC(=O)CCCCO/N=C(/c1cccnc1)c1cccc(C(=O)N2CCc3c(sc4c3C(c3ccccc3Cl)=NC(C)c3nnc(C)n3-4)C2)c1 (stereo not given)	0.065	0.06	2.3
CCOC(=O)CCCCO/N=C(\c1ccc(C(=O)N2CCN(C(=O)C3CSC(c4cccnc4)N3)CC2)cc1)c1cccnc1 (stereo not given)	0.044	0.61	–

Now from value to compound, other results behind:

IC50 [1] [µM]	IC50 [2] [µM]	SMILES	ED50 [3] [mg/kg]
0.0058	0.068	CCOC(=O)CCCCO/N=C(\c1cccnc1)c1cccc(CNS(=O)(=O)c2ccc(Cn3c(C)nc4cnccc43)cc2)c1	–
0.0036	0.55	CCOC(=O)CCCCO/N=C(\c1ccc(NC(=O)c2ccn3c2CSC3c2cccnc2)cc1)c1cccnc1 (stereo not given)	–
0.012	> 1	O=C(O)CCCCO/N=C(\c1cccnc1)c1cccc(CN2CCN(C(=O)C3CSC(c4cccnc4)N3)CC2)c1 (stereo not given)	–
0.0047	0.068	CCOC(=O)CCCCO/N=C(/c1cccnc1)c1cccc(CNS(=O)(=O)c2ccc(Cn3c(C)nc4cnccc43)cc2)c1	–
0.0018	> 1	Cc1nc2cnccc2n1Cc1ccc(S(=O)(=O)NCc2cccc(/C(=N\OCCCCC(=O)O)c3cccnc3)c2)cc1	–
0.021	> 1	CCOC(=O)CCCCO/N=C(\c1ccc(NC(=O)C2CSC(c3cccnc3)N2)cc1)c1cccnc1 (stereo not given)	–
0.021	> 1	CCOC(=O)CCCCO/N=C(\c1cccnc1)c1cccc(NC(=O)C2CSC(c3cccnc3)N2)c1 (stereo not given)	–
0.0012	0.45	CCOC(=O)CCCCO/N=C(\c1cccnc1)c1cccc(NC(=O)c2ccn3c2CSC3c2cccnc2)c1 (stereo not given)	–
0.001	–	CCOC(=O)CCCCO/N=C(/c1ccccc1)c1cccnc1	–
